Reference: PMC10305119, “Analogs of 6-Bromohypaphorine with Increased Agonist Potency for α7 Nicotinic Receptor as Anti-Inflammatory Analgesic Agents” (Marine Drugs, 2023)
“Also recorded” adds a separate entry of the source. Like-named read-outs stand apart in the source and are kept apart here.

Columns and labels:
[1] = system: CD11c expression on macrophages; assay: Flow cytometry of macrophage membrane protein CD11c; format: cell-based, human; conditions: 48 h
Description: The selective agonist PNU 282,987 increased CD11b and CD11c protein expression by an average of 10% and 26%, respectively (Figure 4a,b).
(§1) Peripheral blood mononuclear cells (PBMCs) were separated by Ficoll-Paque PLUS density gradient centrifugation. PBMCs were placed in a sterile Petri dish and incubated at 37 °C for 2 h. Unattached cells were then removed by washing with PBS and substituted with fresh complete RPMI 1640 medium. To generate monocyte-derived macrophages (MDMs), 50 ng/mL GM-CSF was added to the isolated monocytes and cultured for 6 days to differentiate them into non-polarized MDMs.
(§2) Figure 4 The effects of PNU 282987, hypaphorine, and D-6-iodohypaphorine methyl ester (6ID) on macrophage membrane proteins expression. Cells were treated with these compounds for 48 h and then analyzed by flow cytometry. PNU 282,987 led to an increase in the (a) CD11b and (b) CD11c expression. (c): All tested compounds led to a decrease in TLR4 expression. (d): Macrophages stimulation with hypaphorine and 6ID promoted an increase in CD86 expression. Results obtained in three independent experiments on macrophages from different donors and presented as mean ± SD. One-way ANOVA tests with Tukey post hoc test: * p ˂0.05, ** p ˂ 0.01, **** p < 0.0001 in comparison with untreated cells.

human α7 nAChR = biological target: T1, human α7 nAChR (Homo sapiens, UniProt P36544); assay: Calcium fluorescence assay on α7 nAChR expressed in Neuro2a cells, in the presence of PNU120596; format: cell-based; conditions: for α7 nAChR agonistic activity: at concentrations up to 1 mM, PNU 120,596 present
T1 construct: expressed in transfected cells; host or cells: mouse neuroblastoma Neuro2a, transient co-transfection with Ric-3 (Ric3-pCMV6-XL5, OriGene) and the calcium sensor Case12
Description: A panel of the synthesized compounds was tested to determine their activity on α7 nAChR by fluorescence detection of cytoplasmic calcium rise (Figure 2a).
Mouse neuroblastoma Neuro2a cells were purchased from the Russian collection of cell cultures (Institute of Cytology, Russian Academy of Sciences, Saint Petersburg, Russia). Cells were cultured in Dulbecco’s modified Eagle’s essential medium (Paneco, Moscow, Russia) supplemented with 10% fetal bovine serum (Sigma, St. Louis, MO, USA). The cells one day before transfection were subcultured and plated at a density of 10,000 cells per well on a 96-well plate. The next day, Neuro2a cells were transiently transfected with plasmids coding α7 nAChR (human α7 nAChR-pCEP4) or its mutants, the chaperone Ric-3 (Ric3-pCMV6-XL5, OriGene, USA) and a fluorescent calcium sensor Case12 (pCase12-cyto vector, Evrogen, Russia) in molar ratio 4:1:1. Lipofectamine transfection protocol (Invitrogen, Waltham, MA, USA) was performed as recommended by the manufacturer. Transfected cells were grown at 37 °C in a CO2 incubator for 48 h.
Calcium […] assay was performed as described previously. Briefly, Transfected Neuro2a cells were grown on black 96-well plates (Corning, Somerville, MA, USA) at 37 °C in a CO2 incubator for 72 h, then growth medium was substituted with buffer containing 140 mM NaCl, 2 mM CaCl2, 2.8 mM KCl, 4 mM MgCl2, 20 mM HEPES, 10 mM glucose; pH 7.4.
Cells were incubated with the α7 nAChR positive allosteric modulator PNU120596 (10 μM, Tocris, Bristol, UK) for 20 min at room temperature before the addition of tested compounds. Plates were measured in microplate reader Hidex Sence (Hidex, Turku, Finland) using excitation at 485 nm and emission at 535 ± 10 nm. Fluorescence peak intensity in each well was expressed as a percentage of the maximal obtained response. Data files were analysed using Hidex Sence software (Hidex, Turku, Finland). Controls were run in the presence of 4 μM α-cobratoxin.
The R statistical programming environment “https://www.r-project.org/” (accessed on 16 June 2023) was used to analyze the results. Base R graphics and ggplot2 [54] graphical library were used for the data visualisation. Dose-response curves were fitted using “nlm” function and the following equation: response ~ (100/1 + (EC50/x)^n), where x denotes base 10 logarithm of ligand concentration in moles per liter (normalized to 1M) and n is the Hill coefficient. Libraries “rgl” “https://CRAN.R-project.org/package=rgl” (accessed on 16 May 2023) and “barplot3d” “https://cran.r-project.org/src/contrib/Archive/barplot3d/” (accessed on 16 May 2023) were used to generate the 3D bar chart shown on Figure 2b.
Figure 2 In vitro activity determination of the synthesized compounds. […] The receptor activation was detected as an increase in fluorescent signal in cell cytoplasm by fluorescence microscopy or as total fluorescence of the well in 96-well plate reader setup. Normalized fluorescence amplitude was plotted against base 10 logarithm of mole per liter concentration of the tested agonist and EC50 values were than calculated using dose-response equation. […] Substitutions in the 6th position of the indole ring (designated as X) were halogens (green shadow), hydrogen bond acceptors (yellow shadow) or hydrogen bond donors (blue shadow). Carboxy group modifications were comprised by free acid (Q = OH), ethers (Q = OCH3, OC2H5), and amides (Q = NH2, NHCH3).

[2] = system: TLR4 expression on macrophages; assay: Flow cytometry of TLR4 receptor on macrophages; format: cell-based, human; conditions: 48 h incubation
Description: The effect of the above-listed compounds on the expression of the TLR4 receptor and the CD86 protein was studied by flow cytometry after 48 h incubation with macrophages. The interaction of bacterial endotoxins with the TLR4 receptor is known to activate the expression of several pro-inflammatory cytokine genes, while the co-stimulatory molecule CD86 plays an important role in […] inflammatory responses. A decrease in the expression of the TLR4 receptor was observed under the action of all tested compounds (Figure 4c,e), the rank order of these TLR4-suppressing effects was as follows: hypaphorine (14%) < PNU 282,987 (21%) < 6ID (31%).
as §1, §2

T1 sequence (P36544 23-502): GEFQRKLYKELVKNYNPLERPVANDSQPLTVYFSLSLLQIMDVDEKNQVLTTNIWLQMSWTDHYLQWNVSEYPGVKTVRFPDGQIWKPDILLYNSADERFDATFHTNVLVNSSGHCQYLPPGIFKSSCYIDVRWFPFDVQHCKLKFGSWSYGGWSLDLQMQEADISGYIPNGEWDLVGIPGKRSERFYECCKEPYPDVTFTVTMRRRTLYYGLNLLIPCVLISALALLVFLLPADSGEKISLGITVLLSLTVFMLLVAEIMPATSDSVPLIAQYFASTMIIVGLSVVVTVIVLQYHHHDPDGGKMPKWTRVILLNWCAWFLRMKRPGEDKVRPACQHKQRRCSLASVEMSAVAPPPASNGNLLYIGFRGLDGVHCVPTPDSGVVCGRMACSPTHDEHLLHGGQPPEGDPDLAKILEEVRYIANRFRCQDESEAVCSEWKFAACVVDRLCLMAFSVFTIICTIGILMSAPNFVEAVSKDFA

SMILES: C[N+](C)(C)[C@H](Cc1c[nH]c2ccccc12)C(=O)[O-] [Compound 16, L-hypaphorine, reference compound]
- increase in CD11c protein expression [1]: but not 6ID or hypaphorine, leads to a significant increase
- α7 nAChR agonistic activity (human α7 nAChR; listed as Hypaphorine): did not show α7 nAChR agonistic activity
- α7 nAChR agonistic activity (human α7 nAChR; listed as L-hypaphorine): failed to activate α7 nAChR
- EC50 (human α7 nAChR; human α7 nAChR in Neuro2a cells, PNU120596 10 μM present): no agonistic activity
- decrease in the expression of the TLR4 receptor [2]: 14%

SMILES: COC(=O)[C@@H](Cc1c[nH]c2cc(I)ccc12)[N+](C)(C)C [Compound 1, (D)-6-iodohypaphorine methyl ester]
- increase in CD11c protein expression ([1]; listed as 6ID): not statistically significant; also recorded: but not 6ID or hypaphorine, leads to a significant increase
- EC50 (human α7 nAChR): 0.61 µM
- decrease in the expression of the TLR4 receptor [2]: 31%

SMILES: COC(=O)C(Cc1c[nH]c2cc([N+](=O)[O-])ccc12)[N+](C)(C)C (stereo not drawn) [Compound 5, methyl ester of 6-nitrohypaphorine]
- EC50 (human α7 nAChR; human α7 nAChR in Neuro2a cells, PNU120596 10 μM present, read-out: EC50): 14 µM
